According to PMC3734177, “Design, Synthesis, Evaluation and Thermodynamics of 1-Substituted Pyridylimidazo[1,5-a]Pyridine Derivatives as Cysteine Protease Inhibitors” (PLoS ONE, 2013):
Converted amounts (≈) assume the structure as drawn. “And” between values parts separate entries of the source, which are not always exact repeats. Equal values may be shown once. Read-outs that look alike come from different tables or passages of the source.

How the values were obtained:
[1] = target: T1, papain (Carica papaya, UniProt P00784); assay: Cysteine protease inhibitory activity, papain with Bz-DL-Arg-pNA substrate; type: biochemical; conditions: for Type of inhibition: Lineweaver–Burk plot; for IC50: papain
T1 construct: To solutions of active papain (final concentration: 0.05 mM); purchased Sigma Chemical Co., St. Louis, MO, USA
T1 sequence (P00784 134-345): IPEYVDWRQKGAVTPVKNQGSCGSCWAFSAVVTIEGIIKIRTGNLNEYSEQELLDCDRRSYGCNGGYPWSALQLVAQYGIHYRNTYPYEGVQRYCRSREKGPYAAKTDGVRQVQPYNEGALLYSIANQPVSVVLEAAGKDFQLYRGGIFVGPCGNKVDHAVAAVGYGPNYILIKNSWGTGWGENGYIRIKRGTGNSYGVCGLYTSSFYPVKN
Description: The capacity of the 1-pyridylimidazo[1,5-a]pyridine derivatives to inhibit cysteine proteases was tested using papain as the model enzyme. The proteolytic activity of the reaction mixtures was determined using Bz-DL-Arg-pNA as the chromogenic substrate. To solutions of active papain (final concentration: 0.05 mM) were added concentrated solutions of the different derivatives to final concentrations of 0.2 mM. […] The same procedure was used at 32°C and 42°C for thermodynamics studies. The kinetic parameters for the substrate hydrolysis were determined by measuring the initial rate of enzymatic activity. The inhibition constant Ki was determined by Dixon method and also by the Lineweaver–Burk equation. The Km value was calculated from the double-reciprocal equation by fitting the data into the computer software Origin 6.1. The Lineweaver–Burk plot was used to determine the types of inhibition. For the kinetic analysis and rate constant determinations, the assays were carried out in triplicate, and the average value was considered throughout this work.

[2] = target: T1, papain; assay: Thermodynamics analysis of papain inhibition (Van't Hoff); type: biochemical; conditions: Value at 37°C; for ΔH (enthalpy change): Van't Hoff plot
Description: Free energy changes of inhibition of papain against 1- substituted pyridylimidazo[1,5-a] pyridine derivatives (ΔG) were determined by the equation, [drawing 1] (1)
Temperature dependence of the inhibition constants was used to determine the thermodynamic parameters. Changes in enthalpy (ΔH) were determined from the Van’t Hoff plots by using the equation, [drawing 2] (2)
Where ΔH is enthalpy change, R is gas constant, ΔS is entropy change and T is the absolute temperature. The entropy change was obtained from the equation, [drawing 3] (3)

[3] = test system: Bacillus spp. (ATCC-14593); assay: MIC, micro dilution method; type: cell-based; conditions: ATCC14593; Bacillus sp.
Description: (§1) The disk diffusion method was used for the preliminary antibacterial evaluation of 1-pyridylimidazo[1,5-a]pyridine derivatives. The MIC50 of these derivatives, showing inhibition in the preliminary tests, were further determined by the microtitre plate technique using micro dilution method. In brief, the bacterial strains (S. aureus, P. vulgaris, Group D Streptococci, Bacillus sp., E. coli, P. aeruginosa and S. morganii)) were grown and diluted to 2×10^5 colony-forming units (CFU)/ml in sodium phosphate buffer (SPB) containing 0.03% Luria–Bertani (LB) broth. The synthesized derivatives were dissolved in DMSO and their serial dilution was performed in 50 µL of LB medium in 96-well microtitre plate to achieve the required concentrations (0.1–10 µg/ml) with bacterial inoculums (5×10^4 CFU per well). DMSO was taken as negative control and Ceftriaxone and clotrimazole were taken as positive control. After incubation at 37°C overnight, the MICs were taken as the lowest inhibitor concentration at which the bacterial growth was inhibited. The average of three values was calculated and that was the MIC for the test material and bacterial strain. […]

[4] = test system: Escherichia coli (ATCC-25922); assay: MIC, micro dilution method; type: cell-based; conditions: ATCC25922, E. coli
Description: as §1

[5] = test system: Proteus vulgaris (ATCC-29905); assay: MIC, micro dilution method; type: cell-based; conditions: ATCC29905, P. vulgaris
Description: as §1

[6] = test system: Pseudomonas aeruginosa (ATCC-27853); assay: MIC, micro dilution method; type: cell-based; conditions: ATCC27853
Description: as §1

[7] = test system: Staphylococcus aureus (ATCC-25923); assay: MIC, micro dilution method; type: cell-based; conditions: ATCC25923, S. aureus
Description: as §1

[8] = test system: Group D Streptococci (ATCC-12959); assay: MIC, micro dilution method; type: cell-based
Description: (§2) The disk diffusion method was used for the preliminary antibacterial evaluation of 1-pyridylimidazo[1,5-a]pyridine derivatives. The MIC50 of these derivatives, showing inhibition in the preliminary tests, were further determined by the microtitre plate technique using micro dilution method. In brief, the bacterial strains (S. aureus, P. vulgaris, Group D Streptococci, Bacillus sp., E. coli, P. aeruginosa and S. morganii)) were grown and diluted to 2×10^5 colony-forming units (CFU)/ml in sodium phosphate buffer (SPB) containing 0.03% Luria–Bertani (LB) broth. The synthesized derivatives were dissolved in DMSO and their serial dilution was performed in 50 µL of LB medium in 96-well microtitre plate to achieve the required concentrations (0.1–10 µg/ml) with bacterial inoculums (5×10^4 CFU per well). DMSO was taken as negative control and Ceftriaxone and clotrimazole were taken as positive control. After incubation at 37°C overnight, the MICs were taken as the lowest inhibitor concentration at which the bacterial growth was inhibited. The average of three values was calculated and that was the MIC for the test material and bacterial strain.
(§3) For the agar plate count method, 25 µL aliquots of bacteria at 1×10^5 CFU/ml in SPB containing 0.03% LB broth were incubated with 25 µL of diluted compounds for 2 h at 37°C. The mixtures of bacteria and compounds were serially diluted 10-fold with SPB and plated on LB plates that were incubated at 37°C overnight. Bacterial colonies were enumerated the following day.

[9] = test system: Serratia morganii (ATCC- 31665); assay: MIC, micro dilution method; type: cell-based; conditions: ATCC31665
Description: as §2, §3

[10] = test system: Bacillus spp. (ATCC-14593); assay: MBC, sub cultivation from MIC plate; type: cell-based; conditions: ATCC14593, Bacillus sp.
Description: (§4) After having determined the MICs, bacterial strains from the wells of the microtitre plate with no visible bacterial growth were removed for serial sub cultivation of 2 µl into another new microtitre plate containing 100 µl of broth per well and further incubated for 24 h. The lowest concentration with no visible growth was defined as MBC [28], indicating 99.5% killing of the original inoculum. The absorbance of each well was measured at a wavelength of 620 nm by Microplate Manager 4.0 (Bio-Rad laboratories) and compared with a blank. Solvent (DMSO) was used as a negative control. Three replicates were done for each compound and experiment was repeated two times.

[11] = test system: Escherichia coli (ATCC-25922); assay: MBC, sub cultivation from MIC plate; type: cell-based; conditions: ATCC25922, E. coli
Description: as §4

[12] = test system: Group D Streptococci (ATCC-12959); assay: MBC, sub cultivation from MIC plate; type: cell-based
Description: as §4

[13] = test system: Proteus vulgaris (ATCC-29905); assay: MBC, sub cultivation from MIC plate; type: cell-based; conditions: ATCC29905, P. vulgaris
Description: as §4

[14] = test system: Pseudomonas aeruginosa (ATCC-27853); assay: MBC, sub cultivation from MIC plate; type: cell-based
Description: as §4

[15] = test system: Serratia morganii (ATCC- 31665); assay: MBC, sub cultivation from MIC plate; type: cell-based
Description: as §4

[16] = test system: Staphylococcus aureus (ATCC-25923); assay: MBC, sub cultivation from MIC plate; type: cell-based; conditions: ATCC25923, S. aureus
Description: as §4

[17] = test system: Bacillus spp. (ATCC-14593); assay: MIC, micro dilution method; type: cell-based; conditions: ATCC14593; Bacillus sp.; remark: listed apart in the source

Row | Compound | Ki ([1]; 32°C) | Ki ([1]; 37°C) | Ki ([1]; 42°C) | Type of inhibition [1] | IC50 [1] | ΔG (free energy of binding) [2] | ΔS (entropy change) [2] | ΔH (enthalpy change) [2] | MIC50 [3] | MIC50 [4] | MIC90 [4] | MIC50 [5] | MIC90 [5] | MIC50 [6] | MIC90 [6] | MIC50 [7] | MIC90 [7] | MBC ([10]; read-out: MBC50) | MBC ([10]; read-out: MBC90) | MBC ([11]; read-out: MBC50) | also measured
1 | Oc1ccccc1-c1nc(-c2ccccn2)c2ccccn12 [Compound 3a, 1-(2-pyridyl)-3-(2-hydroxyphenyl) imidazo[1,5-a]pyridine] | 14.3 µM | 13.7 µM | 11.1 µM | Non- Competitive | 13.4 µM | −6.86 Kcalmol^−1 and −6.86(±0.30) Kcalmol^−1 | 72.92 (±2.33) Jmol-K^−1 | −6.2(±0.88) KJmol^−1 | 0.6 µg/mL (≈ 2.09 µM) | 0.6 µg/mL (≈ 2.09 µM) | 0.99 µg/mL (≈ 3.45 µM) | 0.8 µg/mL (≈ 2.78 µM) | 1.6 µg/mL (≈ 5.57 µM) | 0.6 µg/mL (≈ 2.09 µM) | 1.09 µg/mL (≈ 3.79 µM) | 0.9 µg/mL (≈ 3.13 µM) | 1.7 µg/mL (≈ 5.92 µM) | 1.2 µg/mL (≈ 4.18 µM) | 2.3 µg/mL (≈ 8 µM) | 1.3 µg/mL (≈ 4.52 µM) | MIC50 [8]: 0.7 µg/mL (≈ 2.44 µM); MIC90 [8]: 1.3 µg/mL (≈ 4.52 µM); MIC50 [9]: 0.8 µg/mL (≈ 2.78 µM); MIC90 [9]: 1.5 µg/mL (≈ 5.22 µM); MBC ([11]; read-out: MBC90): 2.1 µg/mL (≈ 7.31 µM); MBC ([12]; read-out: MBC50): 1.3 µg/mL (≈ 4.52 µM); MBC ([12]; read-out: MBC90): 2.5 µg/mL (≈ 8.7 µM); MBC ([13]; read-out: MBC50): 1.6 µg/mL (≈ 5.57 µM); MBC ([13]; read-out: MBC90): 3.1 µg/mL (≈ 10.8 µM); MBC ([14]; ATCC27853, read-out: MBC50): 1.1 µg/mL (≈ 3.83 µM); MBC ([14]; ATCC27853, read-out: MBC90): 1.9 µg/mL (≈ 6.61 µM); MBC ([15]; ATCC31665, read-out: MBC50): 1.6 µg/mL (≈ 5.57 µM); MBC ([15]; ATCC31665, read-out: MBC90): 3.1 µg/mL (≈ 10.8 µM); MBC ([16]; read-out: MBC50): 1.8 µg/mL (≈ 6.26 µM); MBC ([16]; read-out: MBC90): 3.5 µg/mL (≈ 12.2 µM); MIC90 [17]: 1.2 µg/mL (≈ 4.18 µM)
2 | COc1ccc(-c2nc(-c3ccccn3)c3ccccn23)cc1 [Compound 3b, 1-(2-pyridyl)-3-(4-methoxyphenyl) imidazo[1,5-a]pyridine] | 26.2 µM | 23.2 µM | 21.1 µM | Competitive | 21.2 µM | −6.55 Kcalmol^−1 and −6.55(±0.33) Kcalmol^−1 | 71.4 (±2.46) Jmol-K^−1 | −5.3(±0.80) KJmol^−1 | 0.9 µg/mL (≈ 2.99 µM) | 1 µg/mL (≈ 3.32 µM) | 1.8 µg/mL (≈ 5.97 µM) | 0.8 µg/mL (≈ 2.65 µM) | 1.5 µg/mL (≈ 4.98 µM) | 1 µg/mL (≈ 3.32 µM) | 1.8 µg/mL (≈ 5.97 µM) | 1 µg/mL (≈ 3.32 µM) | 1.9 µg/mL (≈ 6.3 µM) | 1.7 µg/mL (≈ 5.64 µM) | 3.2 µg/mL (≈ 10.6 µM) | 1.9 µg/mL (≈ 6.3 µM) | MBC ([11]; read-out: MBC90): 2.9 µg/mL (≈ 9.62 µM); MBC ([13]; read-out: MBC50): 1.6 µg/mL (≈ 5.31 µM); MBC ([13]; read-out: MBC90): 3.2 µg/mL (≈ 10.6 µM); MBC ([14]; ATCC27853, read-out: MBC50): 2.1 µg/mL (≈ 6.97 µM); MBC ([14]; ATCC27853, read-out: MBC90): 4 µg/mL (≈ 13.3 µM); MBC ([16]; read-out: MBC50): 2.3 µg/mL (≈ 7.63 µM); MBC ([16]; read-out: MBC90): 4.5 µg/mL (≈ 14.9 µM); MIC90 [17]: 1.7 µg/mL (≈ 5.64 µM)
